Data: patent US11266626B2, “Reduction of ER-MAM-localized APP-C99 and methods of treating alzheimer's disease” (THE TRUSTEES OF COLUMBIA UNIVERSITY IN THE CITY OF NEW YORK, priority 2015, dated 2022)
Entries after “also recorded” stand apart in the source; their conditions may differ.

Key:
APP-DKO cells = assay: Seahorse analysis of mitochondrial respiration (OCR); type: cell-based, mouse; settings: APP-DKO cells expressing C99; DAPT added
Procedure: (§1) Respirometry of cultured cells was performed using the XF24e Extracellular Flux Analyzer (Seahorse Bioscience). Oxygen consumption was measured in basal conditions (Seahorse media with 25 mM glucose and 2 mM pyruvate) and after the sequential addition of 1 μM oligomycin (Complex V inhibitor), 0.75 μM FCCP (uncoupler) and 1 μM rotenone/1 μM antimycin A (Complex I and Complex III inhibitors respectively).
To analyze the effect of Aβ addition, a mix of Aβ40/Aβ42 at a ratio 10:1 was added to the cultured cells to a final concentration of 6000 pg/ml for 24 h. For Aβ42 oligomer formation, 5 mM of Aβ42 in DMSO was diluted to 100 μM in ice-cold media, vortexed for 30 seconds, and incubated at 4° C. for 24 h. Aβ42 Oligomers were added to the cultured cells to a final concentration of 5 or 10 μM for 24 h.
(§2) Respirometry of cultured cells was performed using the XF24e Extracellular Flux Analyzer (Seahorse Bioscience). Oxygen consumption was measured in basal conditions (Seahorse media with 25 mM glucose and 2 mM pyruvate) and after the sequential addition of 1 μM oligomycin (complex V inhibitor), 0.75 μM FCCP (uncoupler), and 1 μM rotenone/1 μM antimycin A (complex I and complex III inhibitors, respectively). All results were averages of five or more biological replicates. Every biological replicate consisted of three technical replicates. For every technical replicate, we plated equal number of cells (25,000 cell/well when MEFs were used, and 50,000 cells/well when human primary fibroblasts were analyzed). The number of cells was also counted after every respirometry assay to correct for cell death. All oxygen consumption (OCR) data were normalized by the number of viable cells or by protein quantity when isolated mitochondria were used.
To analyze the effect of Aβ addition, a mix of Aβ40/Aβ42 at a ratio 10:1 was added to the cultured cells to a final concentration of 6,000 pg/ml for 24 h. For Aβ42 oligomer formation, 5 mM of Aβ42 in DMSO was diluted to 100 μM in ice-cold media, vortexed for 30 s, and incubated at 4° C. for 24 h. […]

[1] = system: fibroblasts from AD patients; assay: Staining of lipid droplets with LipidTox Green; type: cell-based, human; settings: 100 nM BI
Procedure: Quantification of total cholesterol and cholesteryl esters was performed using the Cholesterol/Cholesteryl Ester Quantitation kit from Calbiochem (428901). Staining of lipid droplets Staining of lipid droplets was performed using HCS LipidTox™ Deep Green neutral lipid stain (Invitrogen H34475) according to the manufacturer's instructions. Lipid droplet staining was quantified using ImageJ. The different values represent the product of the intensity and the area covered by the fluorescent signal above background in every cell examined.
Staining of lipid droplets was performed using HCS LipidTox™ Deep Green neutral lipid stain (Invitrogen H34475) according to the manufacturer's instructions. Lipid droplet staining was quantified using ImageJ. The different values represent the product of the intensity and the area covered by the fluorescent signal above background in every cell examined.

ACAT1 = assay: ACAT activity assay (conversion of 3H-cholesterol to cholesteryl esters); type: cell-based, mouse; settings: PS-DKO cells; 100 nM BI, 12-16 h
Procedure: To measure cholesterol uptake in vivo, cultured cells were incubated in serum-free medium for 2 h to remove all exogenous lipids. After that, 2.5 μCi/ml of 3H-cholesterol was added to FBS-free DMEM containing 2% FAF-BSA, allowed to equilibrate for at least 30 min at 37° C., and the radiolabeled medium was added to the cells for the indicated periods of time. Cells were then washed and collected in DPBS, removing a small aliquot for protein quantification. Lipids were extracted in 3 volumes of chloroform:methanol (2:1 v/v). After vortexing and centrifugation at 8000×g for 5 min, the organic phase was blown to dryness under nitrogen. […] Iodine-stained bands corresponding to cholesterol and cholesteryl esters were scraped and counted.
(§3) To measure cholesterol esterification in vivo, cultured cells were incubated in serum-free medium for 2 h to remove all exogenous lipids. […] Cells were then washed and collected in DPBS, removing a small aliquot for protein quantification. […] Iodine-stained bands corresponding to cholesterol and cholesteryl esters were scraped and counted.
as §3

PS-DKO cells = assay: Seahorse analysis of mitochondrial respiration (OCR); type: cell-based, mouse; settings: BI 100 nM, myriocin 5 μM, TAPI-1 5 μM, 12-16 h, Aβ40:Aβ42 10:1, 6 ng/ml
Procedure: as §1, §2

PS-DKO MEFs = assay: Uptake of Bodipy-labeled fluorescent cholesterol; type: cell-based, mouse
Procedure: To measure uptake of fluorescent cholesterol, cultured cells were incubated with 1 μM Bodipylabeled cholesterol (Avanti Lipids; 810255P) for 12 h. Alternatively, Bodipy-cholesterol was complexed with methyl-β-cyclodextrin at a 1:10 molar ratio of sterol:cyclodextrin and added to cultured cells to a final concentration of 25 μg/ml for 6-8 h. Cholesterol droplets were visualized by microscopy and fluorescence was quantified by ImageJ.

Row | SMILES | mitochondrial respiration (OCR) (APP-DKO cells) | number of lipid droplets (LDs) [1] | incorporation of radiolabeled cholesterol into cholesteryl esters (ACAT1 activity) (ACAT1) | mitochondrial respiration (initial oxygen consumption rate, OCR) (PS-DKO cells) | uptake of Bodipy-labeled fluorescent cholesterol (PS-DKO MEFs)
1 | C[C@H](NC(=O)Cc1cc(F)cc(F)c1)C(=O)N[C@H](C(=O)OC(C)(C)C)c1ccccc1 [DAPT] | accentuated | – | – | – | –
2 | C[C@@H](NC(=O)c1cc(C(=O)N[C@@H](Cc2ccccc2)[C@H](O)CNC2CC2)cc(N(C)S(C)(=O)=O)c1)c1ccccc1 [BI, β-secretase inhibitor IV] | – | reduced the number of LDs | reduced significantly the incorporation of radiolabeled cholesterol into cholesterol esters; also recorded: reduced the incorporation of cholesterol into cholesteryl esters | reversed the defect in mitochondrial respiration; also recorded: rescued the respiration defects | reduced uptake
